Consider 2 compounds from patent US20110124867A1, “Process and intermediates for the Synthesis of heterocyclic Substituted Piperazines with CXCR3 Antagonist Activity” (Schering Corporation, priority 2007, published 2011).

The target in one data set is T1, CXCR3 (Homo sapiens, UniProt P49682).
T1 sequence (P49682 1-368): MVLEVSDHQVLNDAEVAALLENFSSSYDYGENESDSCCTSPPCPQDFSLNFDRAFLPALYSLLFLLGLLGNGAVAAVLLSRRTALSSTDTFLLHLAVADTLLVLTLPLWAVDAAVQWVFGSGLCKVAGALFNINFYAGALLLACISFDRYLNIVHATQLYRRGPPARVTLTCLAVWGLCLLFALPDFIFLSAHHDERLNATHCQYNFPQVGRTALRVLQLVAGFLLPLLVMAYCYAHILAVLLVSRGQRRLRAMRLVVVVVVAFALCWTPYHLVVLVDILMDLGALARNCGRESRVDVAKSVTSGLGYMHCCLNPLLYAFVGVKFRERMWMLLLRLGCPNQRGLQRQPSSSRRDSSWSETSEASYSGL
To be noted: statement in words, refers to the '641 application; cited from earlier work.

The nature of data set [1]: aqueous solubility of salt forms (comparison in words, no method given). Type of data set: physicochemical. Particulars: methylsulfonate salt compared to other salts.

On to `CCNc1nnc(-c2cnc(N3C[C@H](CC)N(C4CCN(C(=O)c5ccc(Cl)cc5)CC4)C[C@H]3C)c(C)n2)o1` [Compound A45], for which the CXCR3 inhibitor activity entry at CXCR3 is recorded as “useful CXCR3 inhibitor activity”.

As for `CCNc1nnc(-c2cnc(N3C[C@H](CC)N(C4CCN(C(=O)c5ccc(Cl)cc5)CC4)C[C@H]3C)c(C)n2)o1` [Compound II-1], the aqueous solubility entry in data set [1] is “higher aqueous solubility”.
